Source: patent publication US11147784B2, “Dietary supplements and composition for treating cancer” (The Trustees of Princeton University, priority 2013, dated 2021)
Read-outs that look alike come from different tables or passages of the source.

Legend:
[1] = system: HEK293T cells; experiment: U13C tracer labeling of the one-carbon unit pool; format: cell-based; details: 48 h, ADP purine ring and dTTP methyl labeling
Procedure: In order to determine contribution of the single carbon, cells were cultured with media containing [U ^13C] serine for 48 h, washed three times with cold PBS to remove extracellular serine, extracted, and the intracellular labeling pattern analyzed by LC-MS for ATP (representing purines; there is no labeling of ribose-phosphate based on LC-MS measurements), glycine and serine. See e.g., Fan et al., Nature 510: 298-302, 2014.
Purine ring labeling is indicative of formyl-THF labeling.

[2] = system: HCT116 cells; details: HCT116 xenograft in CD-1-Foxn1nu female mice; high (2×-5× normal) glycine diets
Procedure: Approximately 3×10^6 HCT116 cells (or other tumor-forming transformed cells) are injected on the flank of approximately 8 week CD-1-Foxn1nu female mice (Charles River) or similar rodents. To compare cell lines or gather data more rapidly, different cell lines can be ejected on the 2 flanks (right and left) of each mouse. […] Numbers of mice are selected in order to obtain appropriate statistical power, with 6-20 mice per group typical.

[3] = system: HEK293T cells
Procedure: To measure cellular folates, media was removed from HEK293T cells, and replaced with 50:50 methanol:water with 25 mM ammonium acetate and 1% sodium ascorbate, at −20° C. […] After 15 min on ice, the cells were scraped from the dish to further enhance extraction, and the cell-liquid mixture was centrifuged to remove particulate matter. The particulate matter was re-extracted with the same solvent for 15 minutes, and the 2 extracts were combined. The resulting combined extract was treated with rat serum to hydrolyze the polyglutamate chains of folate polyglutamates. […] The resulting mixture was passed through a phenyl solid phase extraction column which removes proteins, highly soluble metabolites, salts and further concentrates the folate species, which were then analyzed by in high resolution LC-MS.

[4] = system: HEK293 cells; details: DMEM lacking serine, 3 days
Source text: (§1) It is hypothesized that high glycine is driving the backwards SHMT reaction while also impairing the forward reaction by product inhibition.

[5] = system: HEK293 cell; details: 3 days
Source text: as §1

[6] = system: HEK293T cells; details: 24 h, +5 mM glycine, DMEM with or without serine
Procedure: (§2) Metabolites were then harvested by quickly aspirating media, washing with PBS buffer, and immediately adding −80° C. 80:20 methanol: water extraction solution at −80° C. Following quenching, the tissue culture dish was incubated at −80° C. for 15 min, and then the cells were scraped from the plate. After centrifuging the cell suspension at 5300×g for 10 min, the supernatant was kept and the debris was re-extracted with −80° C. 80:20 methanol:water. The resulting suspension was centrifuged again and the supernatant was combined with first supernatant. […] LC separation was by reversed-phase ion-pairing chromatography with tributylamine as the ion-pairing agent. MS analysis was on a stand-alone orbitrap mass analyzer (Thermo Scientific) operated in negative ion mode and scanning from m/z 85-1000 at 1 Hz at 100,000 resolution. Data were analyzed using the MAVEN software suite. All observed LC-MS peaks were in analyzed, including those of roughly 100 known water-soluble metabolites.

[7] = system: HEK293T cells; details: absence of exogenous serine, 0.4 mM glycine, or addition of 2 mM or 5 mM glycine
Procedure: Cell growth was measured in an incubator containing 5% CO2 at 37° C.

[8] = system: HEK293T cells; details: 24 h, addition of glycine (5 mM)
Procedure: as §2
HEK293T cells were cultured in the conditions described in Example 2. In addition to measuring metabolite concentrations, important metabolite ratios, e.g., NADH/NAD+, NADPH/NADP+, ATP/ADP, were calculated.

[9] = system: tumor growth; details: patients; current best therapy plus glycine supplementation therapy
Source text: Individuals providing informed consent to enter the trial are randomized to the current best therapy or current best therapy plus glycine supplementation therapy arms.
The glycine supplementation therapy arm involves providing increased total intake of glycine and/or decreased total intake of serine so as to achieve an increased ratio of glycine to serine intake. The clinical course of patients enrolled in the trial is monitored with respect to endpoints selected based on the disease state, e.g., for stage IV lung cancer, changes in tumor volume, progression-free survival, and overall survival, as well as side effects of the treatment regimen.

[10] = system: ΔMTHFD2 cells; details: addition of formate to ΔMTHFD2 cells (from HEK293T)
Procedure: AICAR in wild type HEK293T cells and cells lacking a key enzyme producing formyl-THF, MTHFD2, was measured by LC-MS. See e.g., Fan et al., Nature 510: 298-302, 2014. […] The ΔMTHFD2 cells lacking MTHFD2 were produced from HEK293T cells by CRISPR (clustered regularly interspaced short palindromic repeat)-mediated knockout.

[11] = system: NADPH/NADP+ ratio; experiment: Cellular effect of anti-folate therapy on the NADPH/NADP+ ratio; format: cell-based; details: methotrexate 500 nM

N[C@@H](CO)C(=O)O [serine, reference compound]
contribution to the cellular one-carbon unit pool [1]: contributes to the cellular one-carbon unit pool

NCC(=O)O [glycine]
tumor growth and tumor progression [2]: will reduce tumor growth and slow tumor progression
AICAR ([3]; glycine addition): rise
Formyl-THF and methyl-THF levels ([3]; presence of glycine when serine is absent, 1× and 10× relative to standard DMEM): decrease
Relative NADPH/NADP+ ([4]; 1× glycine, complete DMEM approximately 1): approximately 0.7
Relative NADPH/NADP+ ([4]; addition of 12× glycine): approximately 0.45
decrease in final cell number relative to growth in complete DMEM ([5]; DMEM lacking serine, 1× glycine): approximately 30%
decrease in final cell number relative to growth in complete DMEM ([5]; serine removal and addition of 12× glycine): approximately 70%
intracellular serine levels [6]: enhanced
transformed cell growth [7]: inhibits transformed cell growth
ATP/ADP ratio [8]: significantly decreased
decrease in the NADPH/NADP+ ratio [8]: approximately 2 fold
contribution to the cellular one-carbon unit pool [1]: does not contribute one carbon units
tumor growth and tumor progression [9]: will reduce tumor growth and slow tumor progression

O=CO [formate]
AICAR accumulation [10]: eliminates the AICAR accumulation

CN(Cc1cnc2nc(N)nc(N)c2n1)c1ccc(C(=O)N[C@@H](CCC(=O)O)C(=O)O)cc1 [methotrexate]
NADPH/NADP+ ratio [11]: decrease
